Measured values published in patent US10035801B2, “Pyrazolo compounds and uses thereof” (CONSTELLATION PHARMACEUTICALS, INC., priority 2013, dated 2018).

biological target: T1, KDM5A (Homo sapiens, UniProt P29375); experiment: KDM5 enzyme assay, KDM5A HTRF (Example 463); type: biochemical; conditions: not given
T1 construct: Full length KDM5A enzyme was expressed and purified inhouse; made in house
T1 sequence (P29375 whole entry): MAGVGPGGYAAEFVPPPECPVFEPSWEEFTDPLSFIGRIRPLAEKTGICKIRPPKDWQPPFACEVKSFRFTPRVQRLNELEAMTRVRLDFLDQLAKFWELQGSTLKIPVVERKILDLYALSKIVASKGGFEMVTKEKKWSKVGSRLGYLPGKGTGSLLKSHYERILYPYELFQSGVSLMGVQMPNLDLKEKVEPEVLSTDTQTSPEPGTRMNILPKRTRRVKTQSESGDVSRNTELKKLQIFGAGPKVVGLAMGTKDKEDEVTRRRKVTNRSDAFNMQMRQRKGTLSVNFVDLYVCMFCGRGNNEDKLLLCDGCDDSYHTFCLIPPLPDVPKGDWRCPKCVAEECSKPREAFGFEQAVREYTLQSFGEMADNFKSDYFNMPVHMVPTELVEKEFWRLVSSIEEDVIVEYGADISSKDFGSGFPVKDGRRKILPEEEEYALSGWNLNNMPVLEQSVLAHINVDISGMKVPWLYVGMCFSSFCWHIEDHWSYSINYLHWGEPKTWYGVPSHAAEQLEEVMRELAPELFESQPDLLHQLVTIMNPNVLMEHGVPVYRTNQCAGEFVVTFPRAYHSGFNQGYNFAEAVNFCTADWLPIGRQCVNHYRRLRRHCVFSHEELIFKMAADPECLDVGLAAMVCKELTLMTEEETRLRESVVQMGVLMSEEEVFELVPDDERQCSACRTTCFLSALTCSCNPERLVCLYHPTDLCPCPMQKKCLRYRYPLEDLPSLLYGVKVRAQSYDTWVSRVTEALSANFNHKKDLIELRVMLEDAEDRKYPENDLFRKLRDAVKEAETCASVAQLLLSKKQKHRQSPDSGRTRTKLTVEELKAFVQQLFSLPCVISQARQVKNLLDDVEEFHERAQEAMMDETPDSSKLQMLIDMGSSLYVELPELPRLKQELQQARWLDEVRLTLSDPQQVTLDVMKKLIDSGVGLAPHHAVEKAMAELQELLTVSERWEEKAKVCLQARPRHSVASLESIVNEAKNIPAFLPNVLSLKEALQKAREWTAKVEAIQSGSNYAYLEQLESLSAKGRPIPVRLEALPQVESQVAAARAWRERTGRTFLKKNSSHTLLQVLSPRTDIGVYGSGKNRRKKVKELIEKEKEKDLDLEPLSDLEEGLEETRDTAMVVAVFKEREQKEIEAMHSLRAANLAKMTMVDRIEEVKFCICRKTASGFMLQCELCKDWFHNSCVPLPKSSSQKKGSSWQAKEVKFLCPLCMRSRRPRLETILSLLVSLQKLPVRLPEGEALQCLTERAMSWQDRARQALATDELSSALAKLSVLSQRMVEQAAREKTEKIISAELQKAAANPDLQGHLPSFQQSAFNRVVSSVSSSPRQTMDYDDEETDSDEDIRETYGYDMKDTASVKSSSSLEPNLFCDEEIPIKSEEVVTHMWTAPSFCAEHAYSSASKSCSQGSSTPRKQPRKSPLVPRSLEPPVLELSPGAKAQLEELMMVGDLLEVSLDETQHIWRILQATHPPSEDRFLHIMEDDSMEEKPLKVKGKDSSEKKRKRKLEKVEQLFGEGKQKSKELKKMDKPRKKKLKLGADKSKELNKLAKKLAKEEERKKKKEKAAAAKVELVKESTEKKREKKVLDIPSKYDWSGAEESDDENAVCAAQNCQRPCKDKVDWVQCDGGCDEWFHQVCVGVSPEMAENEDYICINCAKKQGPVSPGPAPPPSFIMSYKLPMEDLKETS

Structure (SMILES) | IC50
CC(C)c1c(-c2ccc(Cl)cc2)[nH]c2c(C#N)cnn2c1=O [Example 341] | 21 nM

same assay, conditions: compounds of Examples 1-432; read-out: Example 463 Assay KDM5A HTRF IC50

Structure (SMILES) | IC50
CC(C)c1c(-c2ccc(Oc3ccccc3)cc2)[nH]c2c(C#N)cnn2c1=O [Example 312] | 28 nM
C=CC(=O)NCCn1cc(-c2[nH]c3c(C#N)cnn3c(=O)c2C(C)C)cn1 [Example 313] | 18 nM
CC(C)c1c(-c2cnn(CCN)c2)[nH]c2c(C#N)cnn2c1=O [Example 314] | 5.2 nM
Cc1ccc(-c2[nH]c3c(C#N)cnn3c(=O)c2C(C)C)cc1C1CC1 [Example 315] | 24 nM
CCOc1cccc(-c2[nH]c3c(C#N)cnn3c(=O)c2C(C)C)c1 [Example 316] | 34 nM
CC(C)c1c(-c2cccc(CO)c2)[nH]c2c(C#N)cnn2c1=O [Example 317] | 25 nM
CC(C)c1c(-c2cnn(CCNC(=O)OC(C)(C)C)c2)[nH]c2c(C#N)cnn2c1=O [Example 318] | 21 nM
CC(C)c1c(-c2cccc(OCCc3ccccc3)c2)[nH]c2c(C#N)cnn2c1=O [Example 319] | 46 nM
CC(C)c1c(C2=CCNCC2)[nH]c2c(C#N)cnn2c1=O [Example 320] | 20 nM
C=CS(=O)(=O)NCCn1cc(-c2[nH]c3c(C#N)cnn3c(=O)c2C(C)C)cn1 [Example 321] | 23 nM
CC(C)c1c(-c2ccc(Nc3ccccc3)cc2)[nH]c2c(C#N)cnn2c1=O [Example 322] | 10 nM
Cc1n[nH]cc1-c1[nH]c2c(C#N)cnn2c(=O)c1C(C)C [Example 323] | 31 nM
CC(C)c1c(-c2ccc(OCc3ccccc3)cc2)[nH]c2c(C#N)cnn2c1=O [Example 324] | 26 nM
CC(C)c1c(-c2cc(F)cc(F)c2)[nH]c2c(C#N)cnn2c1=O [Example 325] | 19 nM
CC(C)c1c(-c2cc(F)cc(C(F)(F)F)c2)[nH]c2c(C#N)cnn2c1=O [Example 326] | 14 nM
CCS(=O)(=O)c1cccc(-c2[nH]c3c(C#N)cnn3c(=O)c2C(C)C)c1 [Example 327] | 48 nM

Structure (SMILES) | IC50
CC(C)c1c(-c2cccc(OC(F)(F)F)c2)[nH]c2c(C#N)cnn2c1=O [Example 328] | 30 nM
CC(C)c1c(-c2cnn(Cc3cncs3)c2)[nH]c2c(C#N)cnn2c1=O [Example 329] | 11 nM
Cc1ccc(-c2[nH]c3c(C#N)cnn3c(=O)c2C(C)C)cc1 [Example 330] | 23 nM
CC(C)c1c(-c2ccc(C3CC3)cc2)[nH]c2c(C#N)cnn2c1=O [Example 331] | 27 nM
CCS(=O)(=O)c1ccc(-c2[nH]c3c(C#N)cnn3c(=O)c2C(C)C)cc1 [Example 332] | 20 nM
C=Cc1cccc(Cn2cc(-c3[nH]c4c(C#N)cnn4c(=O)c3C(C)C)cn2)n1 [Example 333] | 12 nM
CC(C)c1c(-c2ccc(OCc3ccccc3)nc2)[nH]c2c(C#N)cnn2c1=O [Example 334] | 25 nM
CC(C)c1c(C2=CCN(C(=O)OC(C)(C)C)C2)[nH]c2c(C#N)cnn2c1=O [Example 335] | 60 nM
CC(C)c1c(-c2cnn(C(CO)c3ccccc3)c2)[nH]c2c(C#N)cnn2c1=O (stereo not shown) [Example 336] | 32 nM
CC(C)c1c(-c2cnn(C(CC#N)c3ccccc3)c2)[nH]c2c(C#N)cnn2c1=O (stereo not shown) [Example 337] | 25 nM
CC(C)c1c(-c2ccc(C3CC3)nc2)[nH]c2c(C#N)cnn2c1=O [Example 338] | 34 nM
COc1cc(-c2[nH]c3c(C#N)cnn3c(=O)c2C(C)C)ccc1C#N [Example 339] | 33 nM
COc1ccc(-c2[nH]c3c(C#N)cnn3c(=O)c2C(C)C)cc1C(F)(F)F [Example 340] | 31 nM
CC(C)c1c(-c2cnn(Cc3ccc(F)c(F)c3)c2)[nH]c2c(C#N)cnn2c1=O [Example 342] | 9 nM
Cc1ccc(-c2[nH]c3c(C#N)cnn3c(=O)c2C(C)C)cc1C(F)(F)F [Example 343] | 36 nM
CC(C)c1c(-c2ccc(C(=O)N3CCCC3)cc2)[nH]c2c(C#N)cnn2c1=O [Example 344] | 93 nM

biological target: T2, GASC1 (Homo sapiens, UniProt Q9H3R0); experiment: GASC1 demethylation assay on H3K9Me3 peptide (RapidFire HT-MS); type: biochemical; conditions: read-out: GASC1 Inhibition
T2 construct: 6×His tagged recombinant GASC1 (N 350aa) was purified from E. Coli BL21(DE3); 6xHis; made in house; host or cells: E. coli BL21(DE3)
T2 sequence (Q9H3R0 1-350 limits assumed): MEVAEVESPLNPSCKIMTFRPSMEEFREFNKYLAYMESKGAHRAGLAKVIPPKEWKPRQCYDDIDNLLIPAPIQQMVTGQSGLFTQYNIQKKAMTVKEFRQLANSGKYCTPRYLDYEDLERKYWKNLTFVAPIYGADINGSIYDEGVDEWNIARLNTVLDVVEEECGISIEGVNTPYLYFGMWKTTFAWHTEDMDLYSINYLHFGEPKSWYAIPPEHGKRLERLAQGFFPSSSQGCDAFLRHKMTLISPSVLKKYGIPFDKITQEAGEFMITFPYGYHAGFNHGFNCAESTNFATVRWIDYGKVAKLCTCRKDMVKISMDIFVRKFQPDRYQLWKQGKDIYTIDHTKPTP
Procedure: 6×His tagged recombinant GASC1 (N 350aa) was purified from E. Coli BL21(DE3) to near homogeneity. The demethylation reaction buffer contained 50 mM TrisCl pH 7.5, 0.01% Triton X-100, 5% glycerol, 1 mM ascorbate (Cat# A4034, Sigma Aldrich), 5 μM α-ketoglutarate (# K2010, Sigma Aldrich) and 20 μM Fe2(NH4)2(SO4)2 (Cat# F1543, Sigma Aldrich). In 25 μL demethylation reaction system, 400 nM recombinant GASC1 and 20 μM H3K9me3 peptide (1-21 aa) were incubated with compounds for 10 minutes, and then α-ketoglutarate and Fe2(NH4)2(SO4)2 were added to initiate the reaction. All of the reactions were incubated for 45 minutes at room temperature, and then 25 μl of 1 N HCl was added to quench the reactions. After termination, plates were sealed and frozen at −80° C. and shipped on dry ice to BioTrove Inc. (Woburn, Mass.) for analysis.
All the reactions were read by RapidFire™ HT-MS platform developed in BioTrove Inc, and the method has been described in detail previously (Assay and Drug Development Technologies, 2004; 2(4): 373-381). Briefly, at BioTrove, plates were thawed and immediately analyzed using RapidFire™ system coupled to a Sciex API4000 triple quadrapole mass spectrometer. The samples were delivered directly from the plate to a clean-up cartridge (BioTrove column A) to remove nonvolatile assay components with 0.1% formic acid in a 3-sec wash cycle. The peptide substrate and demethylated product were coeluted to the mass spectrometer with 80% acetonitrile, 0.1% formic acid. Both the substrate and product signals were read at their +5 charge species, and the conversion from substrate to product is assessed by [H3K9me2 Read]/[H3K9me2 Read+H3K9me3 Read].

Structure (SMILES) | IC50
CCOC(=O)Cc1c(C)[nH]c2c(C#N)c(C)nn2c1=O [Compound I-1] | ≥ 50000 nM
CCOC(=O)Cc1c(C)[nH]c2c(C#N)cnn2c1=O [Compound I-2] | ≥ 50000 nM
N#Cc1cnn2c(=O)c3c([nH]c12)CCC3 [Compound I-3] | 1000 to 10000 nM
CCc1c(C)[nH]c2c(C#N)c(C)nn2c1=O [Compound I-5] | 1000 to 10000 nM
Cc1[nH]c2c(C#N)cnn2c(=O)c1Cc1ccccc1 [Compound I-6] | ≥ 50000 nM
Cc1nn2c(=O)c3c([nH]c2c1C#N)CCCC3 [Compound I-12] | 10000 to 50000 nM
CCc1nn2c(=O)c3c([nH]c2c1C#N)CCCC3 [Compound I-13] | ≥ 50000 nM
Cn1c2c(c(=O)n3ncc(C#N)c13)CCCC2 [Compound I-14] | ≥ 50000 nM
Cc1nn2c(=O)c(C(C)C)c(C)[nH]c2c1C#N [Compound I-15] | 1000 to 10000 nM
CCCc1c(C)[nH]c2c(C#N)c(C)nn2c1=O [Compound I-16] | 1000 to 10000 nM
CCCc1c(C)[nH]c2c(C#N)cnn2c1=O [Compound I-17] | ≤ 1000 nM
N#Cc1cnn2c(=O)c3c(n(Cc4ccccc4)c12)CCCC3 [Compound I-18] | ≥ 50000 nM
N#Cc1cnn2c(=O)c3c(n(-c4ccccc4)c12)CCCC3 [Compound I-19] | ≥ 50000 nM
Cc1c(C(C)C)c(=O)n2ncc(C#N)c2n1-c1ccccc1 [Compound I-20] | 1000 to 10000 nM
CCc1c(CO)[nH]c2c(C#N)c(C)nn2c1=O [Compound I-22] | 1000 to 10000 nM
CCc1c(COC)[nH]c2c(C#N)c(C)nn2c1=O [Compound I-24] | 1000 to 10000 nM
CCOC(=O)c1[nH]c2c(C#N)c(C)nn2c(=O)c1CC [Compound I-26] | 1000 to 10000 nM
COCCOc1c2c(nc3c(C#N)cnn13)CCCC2 [Compound I-27] | ≥ 50000 nM
COCCc1c(C)[nH]c2c(C#N)cnn2c1=O [Compound I-28] | ≥ 50000 nM
CCCc1c(COC)[nH]c2c(C#N)cnn2c1=O [Compound I-31] | 1000 to 10000 nM
CCc1c(CCCOC)[nH]c2c(C#N)cnn2c1=O [Compound I-32] | 1000 to 10000 nM
CCCc1c(CO)[nH]c2c(C#N)cnn2c1=O [Compound I-33] | 1000 to 10000 nM

Structure (SMILES) | IC50
C=CCc1c(C)[nH]c2c(C#N)cnn2c1=O [Compound I-34] | ≤ 1000 nM
CCc1c(C(C)O)[nH]c2c(C#N)cnn2c1=O (stereo not shown) [Compound I-35] | 1000 to 10000 nM
CCc1c(C)n(CCN(C)C)c2c(C#N)cnn2c1=O [Compound I-36] | ≥ 50000 nM
CCc1c2n(c3c(C#N)cnn3c1=O)CCC2 [Compound I-37] | ≥ 50000 nM
CCc1c(CCCO)[nH]c2c(C#N)cnn2c1=O [Compound I-38] | ≤ 1000 nM
Cc1[nH]c2c(C#N)cnn2c(=O)c1CC(C)C [Compound I-39] | 1000 to 10000 nM
Cc1[nH]c2c(C#N)cnn2c(=O)c1CCO [Compound I-40] | 1000 to 10000 nM
CCc1c(C(F)(F)F)[nH]c2c(C#N)cnn2c1=O [Compound I-41] | ≤ 1000 nM
CCc1c(-c2ccoc2)[nH]c2c(C#N)cnn2c1=O [Compound I-42] | ≤ 1000 nM
CCCc1c(C(=O)OCC)[nH]c2c(C#N)cnn2c1=O [Compound I-43] | 1000 to 10000 nM
CCc1c(Cc2ccccc2)[nH]c2c(C#N)cnn2c1=O [Compound I-44] | ≤ 1000 nM
CCOCc1[nH]c2c(C#N)cnn2c(=O)c1CC [Compound I-45] | ≤ 1000 nM
C#CCc1c(C)[nH]c2c(C#N)cnn2c1=O [Compound I-46] | ≤ 1000 nM
CCc1c(-c2ccccc2)[nH]c2c(C#N)cnn2c1=O [Compound I-47] | ≤ 1000 nM
CCNC(=O)c1[nH]c2c(C#N)cnn2c(=O)c1CC [Compound I-48] | 1000 to 10000 nM
C=CCc1c(CO)[nH]c2c(C#N)cnn2c1=O [Compound I-50] | 1000 to 10000 nM
C=CCc1c(COC)[nH]c2c(C#N)cnn2c1=O [Compound I-51] | ≤ 1000 nM
CCc1c(CNC)[nH]c2c(C#N)cnn2c1=O [Compound I-52] | 1000 to 10000 nM
CCc1c(C(=O)OCc2ccccc2)[nH]c2c(C#N)cnn2c1=O [Compound I-53] | 1000 to 10000 nM
COc1c2c(nc3c(C#N)cnn13)CCCC2 [Compound I-54] | 1000 to 10000 nM
N#Cc1cnn2c(=O)c3ccccc3[nH]c12 [Compound I-55] | 1000 to 10000 nM
